This test deals with T1, human LPA1 (Homo sapiens, UniProt Q92633).
T1 construct: expressed in transfected cells; host or cells: Chinese hamster ovary (CHO) cells
The test can be described thus: LPA1 functional antagonist assay (calcium flux). The class given is cell-based. Conditions: CHO cells overexpressing human LPA1; inhibition of calcium flux induced by 10 nM LPA; read-out: hLPA1 IC50. The method, boiled down: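 Dye-loaded CHO cells overexpressing human LPA1 (30 min, 37 °C) were preincubated 20 min at room temperature with compound (0.08 nM–5 μM; 0.5% DMSO; HBSS, 20 mM HEPES, 0.1% fatty-acid-free BSA), then stimulated with 10 nM LPA. IC50 is the concentration inhibiting 50% of LPA-induced calcium flux, from a 4-parameter logistic fit.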
Background: Calcium assays in cells follow changes in intracellular calcium, usually with a dye or a luminescent sensor.

SMILES strings stand for the structures. pIC50: −log10 of the molar value.

T1 sequence (Q92633 whole entry): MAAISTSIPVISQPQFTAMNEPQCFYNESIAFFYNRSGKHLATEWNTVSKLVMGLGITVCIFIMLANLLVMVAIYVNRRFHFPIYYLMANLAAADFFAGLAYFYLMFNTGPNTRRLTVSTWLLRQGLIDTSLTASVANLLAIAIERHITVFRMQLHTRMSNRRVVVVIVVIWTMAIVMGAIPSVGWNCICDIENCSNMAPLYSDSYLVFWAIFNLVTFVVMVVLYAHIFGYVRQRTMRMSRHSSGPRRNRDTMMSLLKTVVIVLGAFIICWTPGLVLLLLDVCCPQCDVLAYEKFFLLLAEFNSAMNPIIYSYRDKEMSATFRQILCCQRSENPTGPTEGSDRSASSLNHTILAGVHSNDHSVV

For `CCOc1cccc(Nc2c(-c3ccc(O[C@H]4CCC[C@H](C(=O)O)C4)cn3)nnn2C)n1` [Example 248, (1S,3S)-3-((6-(5-((6-ethoxypyridin-2-yl)amino)-1-methyl-1H-1,2,3-triazol-4-yl)pyridin-3-yl)oxy)cyclohexane-1-carboxylic acid], the pIC50 (usually the IC50 on a negative log10 scale, so that one unit is a factor of ten) was 6.95.
The same measure for `Cc1nc(-c2nnn(C)c2COc2ncc(F)c(NC(C)C)n2)ccc1O[C@H]1CCC[C@H](C(=O)O)C1` [Example 252, (1S,3S)-3-((6-(5-(((5-fluoro-4-(isopropylamino)pyrimidin-2-yl)oxy)methyl)-1-methyl-1H-1,2,3-triazol-4-yl)-2-methylpyridin-3-yl)oxy)cyclohexane-1-carboxylic acid]: 7.19.
Regarding `Cc1nc(-c2nnn(C)c2CN(C)c2nccc(OC3CC3)n2)ccc1O[C@H]1CCC[C@H](C(=O)O)C1` [Example 253, (1S,3S)-3-((6-(5-(((4-cyclopropoxypyrimidin-2-yl)(methyl)amino)methyl)-1-methyl-1H-1,2,3-triazol-4-yl)-2-methylpyridin-3-yl)oxy)cyclohexane-1-carboxylic acid], the pIC50 is 7.55.
Next, `Cc1nc(-c2nnn(C)c2COc2cccc(C(C)C)c2)ccc1O[C@H]1CCC[C@H](C(=O)O)C1` [Example 254, (1S,3S)-3-((6-(5-((3-isopropylphenoxy)methyl)-1-methyl-1H-1,2,3-triazol-4-yl)-2-methylpyridin-3-yl)oxy)cyclohexane-1-carboxylic acid]: 8.23.
Next, `Cc1nc(-c2nnn(C)c2COc2cc(OC(F)F)ncn2)ccc1O[C@H]1CCC[C@H](C(=O)O)C1` [Example 255, (1S,3S)-3-((6-(5-(((6-(difluoromethoxy)pyrimidin-4-yl)oxy)methyl)-1-methyl-1H-1,2,3-triazol-4-yl)-2-methylpyridin-3-yl)oxy)cyclohexane-1-carboxylicacid]: 7.89; `CCc1cc(OCc2c(-c3ccc(O[C@H]4CCC[C@H](C(=O)O)C4)c(C)n3)nnn2C)ncn1` [Example 256, (1S,3S)-3-((6-(5-(((6-ethylpyrimidin-4-yl)oxy)methyl)-1-methyl-1H-1,2,3-triazol-4-yl)-2-methylpyridin-3-yl)oxy)cyclohexane-1-carboxylic acid]: 7.66; `CCc1cc(OCc2c(-c3ccc(O[C@H]4CCC[C@H](c5nnn[nH]5)C4)c(C)n3)nnn2C)ncn1` [Example 257, 4-((4-(5-(((1S,3S)-3-(1H-tetrazol-5-yl)cyclohexyl)oxy)-6-methylpyridin-2-yl)-1-methyl-1H-1,2,3-triazol-5-yl)methoxy)-6-ethylpyrimidine]: 7.16.
The same measure for `[2H]C([2H])([2H])C([2H])([2H])Oc1nccc(NCc2c(-c3ccc(O[C@H]4CCC[C@H](C(=O)O)C4)c(C)n3)nnn2C)n1` [Example 258]: 5.73; for `CCOc1ccnc(NCc2c(-c3cnc(O[C@H]4CCC[C@H](C(=O)O)C4)c(C)n3)nnn2C)n1` [Example 259]: 6.88; for `C=CCCc1ccnc(NCc2c(-c3ccc(O[C@H]4CCC[C@H](C(=O)O)C4)c(C)n3)nnn2C)n1` [Example 260]: 8.47.
`Cc1nc(-c2nnn(C)c2CNc2ccnc(OC3CC(F)(F)C3)n2)ccc1O[C@H]1CCC[C@H](C(=O)O)C1` [Example 261]: the pIC50 is 6.91.
As for `Cc1nc(-c2nnn(C)c2CNc2nccc(OC3CC(F)(F)C3)n2)ccc1O[C@H]1CCC[C@H](C(=O)O)C1` [Example 262], the pIC50 was 7.30.
Next, `CCCNc1nc(OCc2c(-c3ccc(O[C@H]4CCC[C@H](C(=O)O)C4)c(C)n3)nnn2C)ncc1F` [Example 263]: 7.02; `CCNc1nc(OCc2c(-c3ccc(O[C@H]4CCC[C@H](C(=O)O)C4)c(C)n3)nnn2C)ncc1F` [Example 264]: 7.12; `Cc1nc(-c2nnn(C)c2CNc2ncc(F)c(NCCOc3ccc(F)cc3)n2)ccc1O[C@H]1CCC[C@H](C(=O)O)C1` [Example 265]: 7.36.
The same measure for `Cc1nc(-c2nnn(C)c2CNc2cccc(C(C)C)n2)ccc1O[C@H]1CCC[C@H](C(=O)O)C1` [Example 266]: 7.06; for `Cc1nc(-c2nnn(C)c2CNc2ccnc(C(C)C)n2)ccc1O[C@H]1CCC[C@H](C(=O)O)C1` [Example 267]: 6.56; for `CCOc1cccc(OCc2c(-c3ccc(O[C@H]4CCC[C@H](C(=O)O)C4)c(C)n3)nnn2C)c1` [Example 268]: 7.29.
The same measure for `Cc1nc(-c2nnn(C)c2CN(C)c2nccc(OCC(C)F)n2)ccc1O[C@H]1CCC[C@H](C(=O)O)C1` (stereo partly shown) [Example 269]: 7.35.
Take `CCOc1ccnc(OCc2c(-c3ccc(O[C@H]4CCC[C@H](C(=O)O)C4)c(C)n3)nnn2C)c1` [Example 270]: the pIC50 is 8.28.
Next, `CCOc1ccnc(N(C)Cc2c(-c3ccc(O[C@H]4CCC[C@H](C(=O)O)C4)c(C)n3)nnn2C)n1` [Example 271]: 7.80; `CCOc1cc(NCc2c(-c3ccc(O[C@H]4CCC[C@H](C(=O)O)C4)c(C)n3)nnn2C)ncn1` [Example 272]: 6.79; `CCOc1cc(OCc2c(-c3ccc(O[C@H]4CCC[C@H](C(=O)O)C4)c(C)n3)nnn2C)ncn1` [Example 273]: 7.89.
The same measure for `Cc1nc(-c2nnn(C)c2COc2cc(OC3CC3)ncn2)ccc1O[C@H]1CCC[C@H](C(=O)O)C1` [Example 274]: 7.59.
The same measure for `Cc1nc(-c2nnn(C)c2COc2cc(C3CC3)ncn2)ccc1O[C@H]1CCC[C@H](C(=O)O)C1` [Example 275]: 7.82; for `Cc1nc(-c2nnn(C)c2COc2cc(OC3CC3)ccn2)ccc1O[C@H]1CCC[C@H](C(=O)O)C1` [Example 276]: 8.06.
As to `Cc1nc(-c2nnn(C)c2COc2cc(C(C)C)ncn2)ccc1O[C@H]1CCC[C@H](C(=O)O)C1` [Example 277], the pIC50 was 7.62.
The same measure for `COc1cc(OCc2c(-c3ccc(O[C@H]4CCC[C@H](C(=O)O)C4)c(C)n3)nnn2C)nc(OC)n1` [Example 279]: 6.85; for `CCc1ccnc(OCc2c(-c3ccc(O[C@H]4CCC[C@H](C(=O)O)C4)c(C)n3)nnn2C)c1` [Example 280]: 7.82; for `COc1ccnc(OCc2c(-c3ccc(O[C@H]4CCC[C@H](C(=O)O)C4)c(C)n3)nnn2C)c1` [Example 281]: 6.44.
The same measure for `Cc1nc(-c2nnn(C)c2COc2ccnc(C3CC3)n2)ccc1O[C@H]1CCC[C@H](C(=O)O)C1` [Example 282]: 7.43; for `Cc1nc(-c2nnn(C)c2COc2cc(C3CC3)ccn2)ccc1O[C@H]1CCC[C@H](C(=O)O)C1` [Example 283]: 8.06; for `CCOc1cnnc(OCc2c(-c3ccc(O[C@H]4CCC[C@H](C(=O)O)C4)c(C)n3)nnn2C)c1` [Example 284]: 6.83.
The same measure for `COCCCOc1cc(OCc2c(-c3ccc(O[C@H]4CCC[C@H](C(=O)O)C4)c(C)n3)nnn2C)ncn1` [Example 285]: 7.21.
For `Cc1nc(-c2nnn(C)c2COc2cc(C(C)(C)C)ncn2)ccc1O[C@H]1CCC[C@H](C(=O)O)C1` [Example 286], the pIC50 was 6.87.
The same measure for `Cc1nc(-c2nnn(C)c2COc2ccnc(C(C)C)n2)ccc1O[C@H]1CCC[C@H](C(=O)O)C1` [Example 287]: 7.39.
Next, `Cc1nc(-c2nnn(C)c2COc2cc(C(F)(F)F)cc(C#N)n2)ccc1O[C@H]1CCC[C@H](C(=O)O)C1` [Example 288]: 6.51.

Values taken from patent publication US11267800B2, “Cyclohexyl acid triazole azines as LPA antagonists” (BRISTOL-MYERS SQUIBB COMPANY, priority 2017, dated 2022).
